# Measurements published in the supplement of paper PMC4862054.
# Test system: DU-4475
# Assay: drug sensitivity score (DSS), CellTiter-Glo (DSS (AUC-based score)); higher = stronger drug effect (viability inhibition or cytotoxicity); extreme values may be limits of the assay
# Details: incubation time: 72 h
# Summary of the method: (§1)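 Breast cancer cell lines (20 µl suspension) were seeded into 384-well plates holding compound at 5 concentrations in 10-fold steps over a compound-specific 10,000-fold range, then incubated 72 h. CellTox Green fluorescence (485/520 nm) was read first, then CellTiter-Glo luminescence after 10 min at room temperature. Each plate was normalised to 0.1 % DMSO and a positive kill control. The drug sensitivity score was calculated from the area under the fitted dose-response curve.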
row,SMILES,drug sensitivity score
1,CC(=O)[C@]1(O)Cc2c(O)c3c(c(O)c2[C@@H](O[C@H]2C[C@H](N)[C@H](O)[C@H](C)O2)C1)C(=O)c1ccccc1C3=O [Idarubicin],8.12
2,C/C(=C\c1csc(C)n1)[C@@H]1C[C@@H]2O[C@]2(C)CCC[C@H](C)[C@H](O)[C@@H](C)C(=O)C(C)(C)[C@@H](O)CC(=O)N1 [Ixabepilone],0
3,C=CCn1c(=O)c2cnc(Nc3ccc(N4CCN(C)CC4)cc3)nc2n1-c1cccc(C(C)(C)O)n1 [MK1775],8.47
4,CO[C@@H]1[C@H](N(C)C(=O)c2ccccc2)C[C@H]2O[C@]1(C)n1c3ccccc3c3c4c(c5c6ccccc6n2c5c31)C(=O)NC4 [Midostaurin],9.68
5,CO[C@@]12[C@H](COC(N)=O)C3=C(C(=O)C(C)=C(N)C3=O)N1C[C@@H]1N[C@@H]12 [Mitomycin C],0
6,CCNC(=O)c1noc(-c2cc(C(C)C)c(O)cc2O)c1-c1ccc(CN2CCOCC2)cc1 [NVP-AUY922],17.8
7,CC1(C)CCC(c2ccc(Cl)cc2)=C(CN2CCN(c3ccc(C(=O)NS(=O)(=O)c4ccc(N[C@H](CCN5CCOCC5)CSc5ccccc5)c(S(=O)(=O)C(F)(F)F)c4)cc3)CC2)C1 [Navitoclax],1.89
8,O=C(CCCCCCC(=O)Nc1ccccc1)NO [Vorinostat],5.43

# Test system: BT-474
# Assay: as above
# Details: incubation time: 72 h
# Summary of the method: as §1
row,SMILES,drug sensitivity score
1,COc1ccc(S(=O)(=O)Nc2cccnc2Nc2ccc(O)cc2)cc1 [ABT-751],6.74
2,CNC(=O)c1ccccc1Sc1ccc2c(/C=C/c3ccccn3)n[nH]c2c1 [Axitinib],0
3,COc1cc(Nc2c(C#N)cnc3cc(OCCCN4CCN(C)CC4)c(OC)cc23)c(Cl)cc1Cl [Bosutinib],6.85
4,Cn1cc(C2=C(c3cn(C4CCN(Cc5ccccn5)CC4)c4ccccc34)C(=O)NC2=O)c2ccccc21 [Enzastaurin],0
5,Nc1ccn([C@@H]2O[C@H](CO)[C@@H](O)C2(F)F)c(=O)n1 [Gemcitabine],3.22
6,CC(=O)[C@]1(O)Cc2c(O)c3c(c(O)c2[C@@H](O[C@H]2C[C@H](N)[C@H](O)[C@H](C)O2)C1)C(=O)c1ccccc1C3=O [Idarubicin],4.44
7,C/C(=C\c1csc(C)n1)[C@@H]1C[C@@H]2O[C@]2(C)CCC[C@H](C)[C@H](O)[C@@H](C)C(=O)C(C)(C)[C@@H](O)CC(=O)N1 [Ixabepilone],1.23
8,C=CCn1c(=O)c2cnc(Nc3ccc(N4CCN(C)CC4)cc3)nc2n1-c1cccc(C(C)(C)O)n1 [MK1775],13.9
9,CO[C@@H]1[C@H](N(C)C(=O)c2ccccc2)C[C@H]2O[C@]1(C)n1c3ccccc3c3c4c(c5c6ccccc6n2c5c31)C(=O)NC4 [Midostaurin],10.5
10,CO[C@@]12[C@H](COC(N)=O)C3=C(C(=O)C(C)=C(N)C3=O)N1C[C@@H]1N[C@@H]12 [Mitomycin C],0
11,CCNC(=O)c1noc(-c2cc(C(C)C)c(O)cc2O)c1-c1ccc(CN2CCOCC2)cc1 [NVP-AUY922],13
12,CC1(C)CCC(c2ccc(Cl)cc2)=C(CN2CCN(c3ccc(C(=O)NS(=O)(=O)c4ccc(N[C@H](CCN5CCOCC5)CSc5ccccc5)c(S(=O)(=O)C(F)(F)F)c4)cc3)CC2)C1 [Navitoclax],9.19
13,O=C(CCCCCCC(=O)Nc1ccccc1)NO [Vorinostat],4.8

# Test system: SK-BR-3
# Assay: as above
# Details: incubation time: 72 h
# Summary of the method: as §1
row,SMILES,drug sensitivity score
1,COc1ccc(S(=O)(=O)Nc2cccnc2Nc2ccc(O)cc2)cc1 [ABT-751],13.1
2,CNC(=O)c1ccccc1Sc1ccc2c(/C=C/c3ccccn3)n[nH]c2c1 [Axitinib],0
3,COc1cc(Nc2c(C#N)cnc3cc(OCCCN4CCN(C)CC4)c(OC)cc23)c(Cl)cc1Cl [Bosutinib],5.72
4,Cn1cc(C2=C(c3cn(C4CCN(Cc5ccccn5)CC4)c4ccccc34)C(=O)NC2=O)c2ccccc21 [Enzastaurin],0
5,Nc1ccn([C@@H]2O[C@H](CO)[C@@H](O)C2(F)F)c(=O)n1 [Gemcitabine],13.6
6,CC(=O)[C@]1(O)Cc2c(O)c3c(c(O)c2[C@@H](O[C@H]2C[C@H](N)[C@H](O)[C@H](C)O2)C1)C(=O)c1ccccc1C3=O [Idarubicin],7.9
7,C/C(=C\c1csc(C)n1)[C@@H]1C[C@@H]2O[C@]2(C)CCC[C@H](C)[C@H](O)[C@@H](C)C(=O)C(C)(C)[C@@H](O)CC(=O)N1 [Ixabepilone],0
8,C=CCn1c(=O)c2cnc(Nc3ccc(N4CCN(C)CC4)cc3)nc2n1-c1cccc(C(C)(C)O)n1 [MK1775],18.8
9,CO[C@@H]1[C@H](N(C)C(=O)c2ccccc2)C[C@H]2O[C@]1(C)n1c3ccccc3c3c4c(c5c6ccccc6n2c5c31)C(=O)NC4 [Midostaurin],7.66
10,CO[C@@]12[C@H](COC(N)=O)C3=C(C(=O)C(C)=C(N)C3=O)N1C[C@@H]1N[C@@H]12 [Mitomycin C],1.42
11,CCNC(=O)c1noc(-c2cc(C(C)C)c(O)cc2O)c1-c1ccc(CN2CCOCC2)cc1 [NVP-AUY922],16.7
12,CC1(C)CCC(c2ccc(Cl)cc2)=C(CN2CCN(c3ccc(C(=O)NS(=O)(=O)c4ccc(N[C@H](CCN5CCOCC5)CSc5ccccc5)c(S(=O)(=O)C(F)(F)F)c4)cc3)CC2)C1 [Navitoclax],0
13,O=C(CCCCCCC(=O)Nc1ccccc1)NO [Vorinostat],5.14

# Test system: CAL-51
# Assay: as above
# Details: incubation time: 72 h
# Summary of the method: as §1
row,SMILES,drug sensitivity score
1,COc1ccc(S(=O)(=O)Nc2cccnc2Nc2ccc(O)cc2)cc1 [ABT-751],2.26
2,CNC(=O)c1ccccc1Sc1ccc2c(/C=C/c3ccccn3)n[nH]c2c1 [Axitinib],9.31
3,COc1cc(Nc2c(C#N)cnc3cc(OCCCN4CCN(C)CC4)c(OC)cc23)c(Cl)cc1Cl [Bosutinib],7.53
4,Cn1cc(C2=C(c3cn(C4CCN(Cc5ccccn5)CC4)c4ccccc34)C(=O)NC2=O)c2ccccc21 [Enzastaurin],0
5,Nc1ccn([C@@H]2O[C@H](CO)[C@@H](O)C2(F)F)c(=O)n1 [Gemcitabine],16.7
6,CC(=O)[C@]1(O)Cc2c(O)c3c(c(O)c2[C@@H](O[C@H]2C[C@H](N)[C@H](O)[C@H](C)O2)C1)C(=O)c1ccccc1C3=O [Idarubicin],14.5
7,C/C(=C\c1csc(C)n1)[C@@H]1C[C@@H]2O[C@]2(C)CCC[C@H](C)[C@H](O)[C@@H](C)C(=O)C(C)(C)[C@@H](O)CC(=O)N1 [Ixabepilone],14.8
8,C=CCn1c(=O)c2cnc(Nc3ccc(N4CCN(C)CC4)cc3)nc2n1-c1cccc(C(C)(C)O)n1 [MK1775],15.5
9,CO[C@@H]1[C@H](N(C)C(=O)c2ccccc2)C[C@H]2O[C@]1(C)n1c3ccccc3c3c4c(c5c6ccccc6n2c5c31)C(=O)NC4 [Midostaurin],15.9
10,CO[C@@]12[C@H](COC(N)=O)C3=C(C(=O)C(C)=C(N)C3=O)N1C[C@@H]1N[C@@H]12 [Mitomycin C],10.5
11,CCNC(=O)c1noc(-c2cc(C(C)C)c(O)cc2O)c1-c1ccc(CN2CCOCC2)cc1 [NVP-AUY922],15.7
12,CC1(C)CCC(c2ccc(Cl)cc2)=C(CN2CCN(c3ccc(C(=O)NS(=O)(=O)c4ccc(N[C@H](CCN5CCOCC5)CSc5ccccc5)c(S(=O)(=O)C(F)(F)F)c4)cc3)CC2)C1 [Navitoclax],2.18
13,O=C(CCCCCCC(=O)Nc1ccccc1)NO [Vorinostat],8.31
